Test results taken from patent US20230181602A1, “TREATMENT OF NON-ALCOHOLIC STEATOHEPATITIS (NASH)” (DURECT CORPORATION, priority 2020, published 2023).

What was measured:
[1] = Tissue distribution by quantitative whole body autoradiography after single oral (gavage) dose; format: in vivo, Sprague Dawley rats; settings: 75 mg/kg oral
[2] = Plasma pharmacokinetics after single oral (gavage) dose in rats; format: in vivo; settings: 75 mg/kg single oral (gavage) dose
Experimental: The terminal elimination phase T1/2 was 27.3 hours.

[3] = Tissue distribution by quantitative whole body autoradiography after single intravenous dose; format: in vivo, Sprague Dawley rats; settings: 10 mg/kg intravenous
Description: (§1) The objectives of this study were to determine the plasma pharmacokinetics of [4-^14C]-25HC3S-derived radioactivity in male Sprague Dawley rats, determine the routes of elimination and excretion mass balance of [4-^14C]-25HC3 S-derived radioactivity in male Sprague Dawley rats, determine the tissue distribution and tissue pharmacokinetics of [4-^14C]-25HC3S-derived radioactivity using quantitative whole body autoradiography methods in male Sprague Dawley and Long Evans rats following a single intravenous (bolus) dose, and to provide plasma, urine, and fecal homogenate samples for metabolite profiling of [4-^14C]-25HC3 S-derived radioactivity.
(§2) Nine male Sprague Dawley rats (Group 1) were designated for the pharmacokinetic phase, 3 male Sprague Dawley rats (Group 2) for the excretion mass balance phase, and 7 male Sprague Dawley rats (Group 3) and 9 male Long Evans rats (Group 4) for the tissue distribution phase. All animals received a single intravenous dose of [^14C]-25HC3S at 10 mg/kg and a target radioactivity of 225 μCi/kg. Blood samples were collected from all Group 1 animals at approximately 0.083, 0.25, 0.5, 1, 2, 4, 8, 12, 24, 48, and 72 hours post-dose. Urine and feces were collected from all Group 2 animals periodically through 168 hours post-dose. […] Following blood collection, animals were euthanized by CO2 inhalation and carcasses frozen in a dry ice/hexane bath for processing by quantitative whole body autoradiography. Whole blood, plasma, urine, feces, cage rinse, and cage wash were analyzed for total radioactivity by liquid scintillation counting.

[4] = Plasma pharmacokinetics of radioactivity after single intravenous dose in rats; format: in vivo, Sprague Dawley rats; settings: 10 mg/kg single intravenous (bolus) dose
Description: as §1, §2

[5] = Excretion after single oral (gavage) dose in rats; format: in vivo; settings: 75 mg/kg single oral (gavage) dose
[6] = Single dose safety and pharmacokinetic study in subjects with NASH and control healthy subjects; format: in vivo, human
Experimental: The present Example was a randomized, dose ranging, single dose safety and pharmacokinetic study of 25HC3S administered to subjects with NASH and control healthy subjects. […] For each cohort, 10 subjects with NASH were enrolled which were further classified into cirrhotic and non-cirrhotic. Each subject received only one dose of study treatment. The second cohort was dosed after a review of safety and tolerability data from Cohort 1.

[7] = Metabolite profiling of plasma and feces after oral dose in rats; format: in vivo; settings: 75 mg/kg oral
Experimental: Radiolabeled components in plasma and feces extracts were profiled and identified using radio-high performance liquid chromatography (HPLC) and high performance liquid chromatography/mass spectrometry (HPLC/MS) methods.
Plasma pools were prepared for Group 1 (75 mg/kg, [^14C]-25HC3S) samples collected at 2, 4, and 6 hours post-dose. […] One metabolite M29 was identified as 25-hydroxycholesterol with 37% ROI and a concentration of 1233 ng-equiv./g.
Feces pools were prepared for Group 2 (75 mg/kg, [^14C]-25HC3S) samples collected from 0 to 24, 24 to 48, 48 to 72, 72 to 96, 96 to 120, 120 to 144, and 144 to 168 hours post-dose. A total of eleven metabolites were identified. None of the metabolites were present at ≥5% of dose. Metabolites present at 2-5% of dose were M1 (4.5% of total dose and 1%-69% ROI), M3 (4.6% of total dose and 1%-44% ROI), M4 (2.0% of total dose and 0%-10% ROI), M8 (3.1% of total dose and 1%-46% ROI), […], and M30 (3.3% of total dose and 0%-5% ROI).

C[C@H](CCCC(C)(C)O)[C@H]1CC[C@H]2[C@@H]3CC=C4[14CH2][C@@H](OS(=O)(=O)O)CC[C@]4(C)[C@H]3CC[C@]12C [[4-^14C]-25HC3S]
plasma:whole blood AUClast ratio [1]: 1.12 | skin, thymus, prostate, and pituitary tissue concentrations [1]: < 3000 ng equiv./g | tissue Tmax [1]: ≤ 6 h | tissue concentrations by 168 hours post-dose [1]: near or below the quantitation limit in all tissues except adrenal gland and liver | tissue distribution of drug and/or its metabolites [1]: broadly distributed and detected by quantitative whole body autoradiography in all tissues except the eye (lens) | tissue:plasma ratio (AUClast), adrenal gland [1]: 6.64 | tissue:plasma ratio (AUClast), liver [1]: 6.96 | tissue:plasma ratio (AUClast), small intestine (wall) [1]: 15.4 | uveal tract and brain concentrations [1]: approximately 1000 ng equiv./g | whole blood AUClast [1]: 127,000 h·ng equiv./g | plasma AUClast (radioactivity) [2]: 96,400 h·ng equiv./g | terminal elimination phase T1/2 [2]: 27.3 h | AUClast in liver [3]: ≤ 364,000 h·ng/g | concentrations in thymus, bone (femur), uveal tract, fat, testes, and brain (approximate) [3]: around 1500 ng-equiv./g | concentrations in thymus, bone (femur), uveal tract, fat, testes, and brain (bound) [3]: < 5000 ng-equiv./g | tissue concentrations by 168 hours postdose [3]: below quantitation limit in all tissues except adrenal gland, harderian gland, liver, and small intestine | tissue:plasma ratio (AUClast), liver [3]: 11.4 | tissue:plasma ratio (AUClast), small intestine (wall) [3]: 7.44 | tissue distribution of drug and/or its metabolites ([3]; Group 3): broadly distributed and detected by quantitative whole body autoradiography in all tissues except the eye (lens) | mean plasma C0 (radioactivity) [4]: 25,900 ng-equiv./g | plasma AUClast (radioactivity) [4]: 27,900 h*ng-equiv./g | terminal elimination phase T1/2, plasma [4]: 26.6 h | dose recovered in urine, feces, and cage rinse [5]: approximately 94.5% | recovered radioactivity in feces [5]: 94.2%

C[C@H](CCCC(C)(C)O)[C@H]1CC[C@H]2[C@@H]3CC=C4C[C@@H](OS(=O)(=O)[O-])CC[C@]4(C)[C@H]3CC[C@]12C.[Na+] [25HC3S sodium]
difference between healthy and NASH subjects in pharmacokinetics (Cmax and AUC) ([6]; 50 mg and 200 mg): no clear difference | increase of geometric mean Cmax in NASH subjects over healthy subjects ([6]; Cohorts 1 and 2): 18-24% | increasing trends in exposure (AUC parameters) in NASH subjects ([6]; NASH versus healthy subjects): up to 31%

desmosterol sulfate
presence in plasma or feces samples [7]: not found
